Among the targets are Cytochrome P450 2C9 (Homo sapiens, UniProt P11712); Cytochrome P450 3A4 (Homo sapiens, UniProt P08684); Cytochrome P450 2D6 (Homo sapiens, UniProt P10635).
The target in another experiment is T1, Cytochrome P450 1A2 (Homo sapiens, UniProt P05177).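 Further: PubChem cytochrome P450 panel assay, CYP1A2 panel member.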
T1 sequence (P05177 whole entry): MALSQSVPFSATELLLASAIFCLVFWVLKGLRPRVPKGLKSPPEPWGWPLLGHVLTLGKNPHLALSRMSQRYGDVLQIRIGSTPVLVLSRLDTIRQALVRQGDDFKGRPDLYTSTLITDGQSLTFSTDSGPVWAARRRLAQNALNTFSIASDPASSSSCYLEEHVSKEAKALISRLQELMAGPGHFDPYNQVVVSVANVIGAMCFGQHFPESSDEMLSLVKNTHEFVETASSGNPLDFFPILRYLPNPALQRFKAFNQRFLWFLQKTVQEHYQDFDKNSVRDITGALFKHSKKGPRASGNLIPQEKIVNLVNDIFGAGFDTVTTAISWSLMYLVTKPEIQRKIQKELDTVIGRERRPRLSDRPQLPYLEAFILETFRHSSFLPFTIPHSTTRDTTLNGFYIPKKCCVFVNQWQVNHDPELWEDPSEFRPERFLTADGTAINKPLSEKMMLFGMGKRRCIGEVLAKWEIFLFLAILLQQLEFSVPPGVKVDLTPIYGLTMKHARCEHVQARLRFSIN

For experiment [1], the target named is T2, Corticotropin-releasing factor receptor 2/Corticotropin-releasing factor-binding protein (Homo sapiens, UniProt P24387+Q13324).
T2 sequence (Q13324 whole entry): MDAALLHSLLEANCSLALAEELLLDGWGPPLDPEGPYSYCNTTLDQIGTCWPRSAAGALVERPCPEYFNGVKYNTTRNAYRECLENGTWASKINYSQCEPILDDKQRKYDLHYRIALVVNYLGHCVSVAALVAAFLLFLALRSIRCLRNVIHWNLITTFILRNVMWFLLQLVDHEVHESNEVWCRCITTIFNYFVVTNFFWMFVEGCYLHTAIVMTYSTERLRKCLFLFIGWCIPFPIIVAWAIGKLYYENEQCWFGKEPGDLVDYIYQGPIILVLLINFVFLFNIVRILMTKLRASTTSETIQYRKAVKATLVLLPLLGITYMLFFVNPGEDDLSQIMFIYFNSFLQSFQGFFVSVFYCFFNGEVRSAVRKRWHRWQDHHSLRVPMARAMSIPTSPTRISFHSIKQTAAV
T2 sequence (P24387 whole entry): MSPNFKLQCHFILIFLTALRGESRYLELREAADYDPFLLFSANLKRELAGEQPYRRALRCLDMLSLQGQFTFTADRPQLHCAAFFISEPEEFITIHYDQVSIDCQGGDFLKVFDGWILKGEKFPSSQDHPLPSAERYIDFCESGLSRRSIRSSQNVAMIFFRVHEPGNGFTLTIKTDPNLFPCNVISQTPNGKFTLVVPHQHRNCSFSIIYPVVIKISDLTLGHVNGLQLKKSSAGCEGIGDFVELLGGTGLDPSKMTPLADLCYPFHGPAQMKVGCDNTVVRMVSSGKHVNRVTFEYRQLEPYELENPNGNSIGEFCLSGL
Nature of the experiment: activators of CRF receptor 2 with binding protein – uHTS hits, confirmation (AID 602473). It is filed as functional. The following applies: read-out: EC50_Mean.

Experiment [2] is described as follows: inhibitors of intracellular T. cruzi replication, confirmation, NIH3T3 host cells, beta-gal luminescence (AID 2044).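 Further: intracellular parasites grown in NIH/3T3 mouse fibroblasts as host cells; luminescent beta-galactosidase reporter signal from transgenic T. cruzi replicating inside host cells; inhibitors lower the luminescence signal.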 Format: functional, cell-based.
Experiment [3] is described as follows: cytotoxicity toward NIH3T3 fibroblasts, dose response, counter-screen, cell-based, ATP luminescence, mouse fibroblasts (AID 2010).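 Further: cells exposed to compound for about 90 hours before reading.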 Format: functional. For orientation: The purpose of a counterscreen is to sort out artefacts and off-target activity.
For a further experiment, the system named is Streptococcus. Nature of the experiment: Group A Streptococcus viability loss, dose response, counter-screen for streptokinase expression inhibitor project, luminescence, BacTiterGlo (AID 1915).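 Further: potency for reduction of bacterial viability or growth.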 It is filed as functional, organism-based.
Experiment [4] relates to Streptococcus sp. 'group A'. Description: growth inhibition of control SK(-) GAS strain, dose response, counter-screen for streptokinase expression inhibitor project, luminescence, kanamycin, BacTiterGlo, confirmation (AID 1900). Format: functional, organism-based.

Several values for one entry are separate records, joined by “and”; a condition that tells them apart may be missing. Equal entries are not always repeated. Activity calls are given as the source filed them.

Sequence of Cytochrome P450 2D6 (P10635 whole entry): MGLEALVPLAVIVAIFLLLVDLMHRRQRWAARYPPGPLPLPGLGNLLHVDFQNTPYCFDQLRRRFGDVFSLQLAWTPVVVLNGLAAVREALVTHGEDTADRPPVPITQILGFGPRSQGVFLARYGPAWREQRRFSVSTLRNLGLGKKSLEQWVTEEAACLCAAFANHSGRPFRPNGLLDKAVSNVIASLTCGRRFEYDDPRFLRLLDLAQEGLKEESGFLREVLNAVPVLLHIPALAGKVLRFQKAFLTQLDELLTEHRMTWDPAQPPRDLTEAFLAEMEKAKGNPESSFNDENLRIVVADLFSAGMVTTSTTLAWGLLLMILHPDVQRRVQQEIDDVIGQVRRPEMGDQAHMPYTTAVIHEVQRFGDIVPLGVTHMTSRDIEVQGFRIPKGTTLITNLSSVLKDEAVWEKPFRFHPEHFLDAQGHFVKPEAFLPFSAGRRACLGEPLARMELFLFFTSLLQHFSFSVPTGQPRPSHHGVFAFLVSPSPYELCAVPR
Sequence of Cytochrome P450 3A4 (P08684 whole entry): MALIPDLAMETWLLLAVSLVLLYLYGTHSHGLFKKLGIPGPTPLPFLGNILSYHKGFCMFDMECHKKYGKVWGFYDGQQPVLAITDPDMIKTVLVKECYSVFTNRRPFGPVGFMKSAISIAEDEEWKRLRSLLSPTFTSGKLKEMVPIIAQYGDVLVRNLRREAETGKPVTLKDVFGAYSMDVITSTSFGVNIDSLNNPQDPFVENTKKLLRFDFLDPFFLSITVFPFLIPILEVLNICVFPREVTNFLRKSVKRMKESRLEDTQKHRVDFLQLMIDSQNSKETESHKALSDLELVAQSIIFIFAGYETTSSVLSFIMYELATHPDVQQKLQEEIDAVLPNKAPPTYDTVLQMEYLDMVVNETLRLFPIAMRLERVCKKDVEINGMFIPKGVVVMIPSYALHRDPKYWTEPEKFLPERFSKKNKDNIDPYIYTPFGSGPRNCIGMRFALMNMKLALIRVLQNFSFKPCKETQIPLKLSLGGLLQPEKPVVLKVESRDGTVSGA
Sequence of Cytochrome P450 2C9 (P11712 whole entry): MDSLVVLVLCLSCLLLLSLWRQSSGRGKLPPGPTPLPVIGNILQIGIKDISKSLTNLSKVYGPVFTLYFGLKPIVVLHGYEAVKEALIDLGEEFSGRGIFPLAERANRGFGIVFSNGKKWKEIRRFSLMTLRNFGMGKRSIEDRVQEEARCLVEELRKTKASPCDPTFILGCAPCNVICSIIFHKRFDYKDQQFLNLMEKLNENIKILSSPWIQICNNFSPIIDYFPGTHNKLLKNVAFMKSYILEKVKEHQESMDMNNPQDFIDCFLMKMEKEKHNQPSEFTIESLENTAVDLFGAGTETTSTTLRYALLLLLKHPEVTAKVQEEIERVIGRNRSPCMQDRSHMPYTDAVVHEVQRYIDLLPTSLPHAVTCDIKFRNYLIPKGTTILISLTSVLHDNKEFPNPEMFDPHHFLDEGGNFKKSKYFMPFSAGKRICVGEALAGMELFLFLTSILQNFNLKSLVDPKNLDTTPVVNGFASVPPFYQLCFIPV

In the case of `COC(=O)c1cc(NC(=O)CC2NC3CCCCC3NC2=O)cc(C(=O)OC)c1` (stereo not given), on Cytochrome P450 2C9, the AC50 (usually the midpoint of the concentration-response curve, whichever way the signal moves) was 12.6 µM (inconclusive).
For `Cc1cccc(C(CC(=O)N2CCCC2)c2ccccc2)c1O` (stereo not given), the AC50 at Cytochrome P450 1A2 is 15.8 µM (inconclusive).
Consider `C[C@@H]1C[C@H](C)CN(S(=O)(=O)c2cc(Cl)c(Oc3ccc([N+](=O)[O-])cc3Cl)c(Cl)c2)C1`, for which the AC50 on Cytochrome P450 2C9 is 6.31 µM (inconclusive).
`Cn1c(C(=O)O)c(CC(=O)NCc2cccnc2)c2ccccc21`: on Cytochrome P450 1A2, the AC50 was 10 µM (inconclusive).
With `CN(Cc1ccco1)c1ncnc2ccc(-c3ccccc3Cl)cc12`, on Cytochrome P450 2C9, the AC50 is 1.58 µM (inconclusive).
For the compound `Cc1nn(Cc2ccc(Cl)cc2)c(C)c1NC(=O)Cn1nc([N+](=O)[O-])c(Cl)c1C`, the AC50 on Cytochrome P450 3A4 was 1.12 µM (inconclusive).
Turning to `CCCCCn1/c(=N/C(=O)c2cccnc2)c(C#N)cc2c(=O)n3cccc(C)c3nc21`, in [1], the EC50 was > 53 µM (inactive).
As to `Cc1ccc(NC(=O)C2CCN(c3cnccn3)CC2)cc1C`, the EC50 was 1.55 µM (active) in experiment [2] and > 60 µM (not active) in [3].
Consider `C=CCc1cccc(C2Nc3ccccc3C(=O)N2O)c1O` (stereo not given), for which the AC50 on Cytochrome P450 2D6 was 0.355 µM (inconclusive).
`CCCCCCCCCn1cc(C(C)=O)c(=O)[nH]c1=O`: the AC50 at Cytochrome P450 1A2 is 14.1 µM (inconclusive).
As for `COc1ccc2[nH]cc(CCNc3ccnc(-c4ccccc4C)n3)c2c1`, the AC50 on Cytochrome P450 2C9 was 1.26 µM (inconclusive).
`COc1cccc(CNc2ccc(F)c(Cl)c2)c1O`: the AC50 on Cytochrome P450 3A4 is 35.5 µM (inconclusive).
As to `CCc1ccccc1NC(=O)C(C)n1nc([N+](=O)[O-])c(Br)c1C` (stereo not given), at Cytochrome P450 1A2, the AC50 was 28.2 µM (inconclusive).
Turning to `CCN1CCN(c2cc(C)c3cc(NC(=O)Cc4ccccc4OC)ccc3n2)CC1`, the EC50 in experiment [2] was 1.14 µM (active); in experiment [3], > 60 µM (not active).
For `c1ccc([C@@H]2CN3CCSC3=N2)cc1` [DEXAMISOLE], at Cytochrome P450 2D6, the AC50 was 31.6 µM (inconclusive) and 10 µM (inconclusive) and 20 µM (inconclusive).
On the same count and under the same terms, under `CC(C(=O)Nc1ccccc1Sc1ccccc1)N(c1ccccc1)S(C)(=O)=O` (stereo not given) stands 25.1 µM (inconclusive).
For the compound `O=C(Nc1ncc(Cc2ccccc2Cl)s1)c1ccc(-c2cccc([N+](=O)[O-])c2)o1`, the EC50 in [2] was 1.57 µM (active); in [3] it was > 60 µM (inconclusive).
As to `Cc1cc(COC(=O)C2N3C(=O)[C@@H](NC(=O)COc4ccccc4)[C@H]3SC2(C)C)on1` (stereo not given in full), the values for the EC50 (in the experiment with Streptococcus; in [4]) were 0.384 µM (active) and 0.175 µM (active), respectively.
For `Nc1nonc1-c1nc2ccccc2n1CC(=O)N/N=C\c1ccc(-c2ccc(Cl)cc2)o1`, in that order: 2.38 µM (active) and 1.02 µM (active).
As for `O=c1onc(-c2cccs2)n1Cc1ccccc1`, on Cytochrome P450 2C9, the AC50 was 31.6 µM (inconclusive).
Turning to `O=C(NC(N1CCOCC1)C(Cl)(Cl)Cl)c1cc([N+](=O)[O-])cc([N+](=O)[O-])c1` (stereo not given), the figures for the EC50 in experiment [2] and in [3] were 0.9 µM (active) and > 60 µM (not active), respectively.
As for `Nc1nc(Nc2ccccc2)nc2c1ncn2[C@@H]1O[C@@H](CO)[C@H](O)[C@@H]1O`, the AC50 on Cytochrome P450 1A2 was 31.6 µM (inconclusive).
On to `Clc1ccc(-c2noc(CN3CCCCC3)n2)cc1`, for which, at Cytochrome P450 2D6, the AC50 is 3.16 µM (inconclusive).
Turning to `CCCN1CN=C(S)N(c2cccc(C)c2C)C1`, on Cytochrome P450 3A4, the concentration at half-maximal activity (AC50) was 15.8 µM (inconclusive).
In the case of `CCOC(=O)c1cc2c(=O)n3ccccc3nc2n(C(C)C)/c1=N/C(=O)c1c(-c2c(F)cccc2Cl)noc1C`, the EC50 in experiment [2] was 2.18 µM (active); in [3], > 60 µM (inconclusive).
For `Cc1nn(-c2ccccc2)c(N2CCCC2)c1/C=N/NC(=O)c1cc(-c2ccccc2)nc2ccccc12`, in that order: 1.96 µM (active) and > 60 µM (not active).
`O=C(CSc1nnc(Cc2cc(O)nc(O)n2)n1-c1ccccc1)N1CCCc2ccccc21`: the AC50 on Cytochrome P450 3A4 was 15.8 µM (inconclusive).
With `O=[N+]([O-])c1cc(Cc2cc([N+](=O)[O-])c3cccnc3c2O)c(O)c2ncccc12`, the results for the AC50 at Cytochrome P450 2D6 and on Cytochrome P450 2C9 were 3.98 µM (inconclusive) and 5.01 µM (inconclusive), respectively.
Consider `CCOC(=O)CN(C(=O)CCC(=O)Nc1cc(C)on1)C(C(=O)NC1CCCC1)c1cccnc1` (stereo not given), for which the AC50 on Cytochrome P450 2C9 is 17.8 µM (inconclusive).
`Cc1ccc(-n2nnnc2SCC(=O)c2cc(C)n(CC3CCCO3)c2C)cc1` (stereo not given): the EC50 in [2] is 0.479 µM (active); in experiment [3] it was > 30 µM (not active).
For `Cc1nc(O)c2nsc(C(=O)Nc3ccc(N4CCCC(O)C4)cc3)c2n1` (stereo not given), the EC50 with Streptococcus was > 150 µM (not active); in experiment [4], 3.32 µM (active).
For `O=C(O)c1ccccc1C1c2ccccc2Oc2ccccc21`, the AC50 on Cytochrome P450 2C9 was 3.98 µM (inconclusive).
Regarding `O=C(Oc1ccccc1)N1CCC2(CCCN(C(c3ccccc3)c3ccccc3)C2)CC1`, at Cytochrome P450 2C9, the AC50 is 2 µM (inconclusive).
Turning to `COC(=O)[C@@]1(Cc2ccc(OC)cc2)[C@H]2c3cc(C(=O)N(C)C)n(CCc4ccc(OC)c(Br)c4)c3C[C@H]2CN1C(=O)c1ccccc1`, the AC50 on Cytochrome P450 2D6 was 0.0501 µM (inconclusive).
For `CC(C)CCc1noc(CN(C)CC2CCN(Cc3ccccc3)CC2)n1`, the values for the EC50 in [2] and in experiment [3] were 1.47 µM (active) and > 60 µM (not active), respectively.
On to `CCCC(=O)Nc1ccc(C(=O)NNC(=S)NC(=O)c2cccs2)cc1`, for which the AC50 at Cytochrome P450 2D6 is 39.8 µM (inconclusive).
Regarding `CO/C(O)=C1\C(C)=NC(C)=C([N+](=O)[O-])[C@@H]1c1ccccc1C(F)(F)F`, at Cytochrome P450 1A2, the concentration at half-maximal activity (AC50) is 39.8 µM (inconclusive).
`Cc1cnc(CNc2nc(-c3ccc(N(C)C)cc3)nc3ccccc23)cn1`: at Cytochrome P450 2D6, the AC50 was 39.8 µM (inconclusive).
As for `CCn1cc(CN2CCCC(C(=O)c3ccc(-c4ccccc4)c(F)c3)C2)cn1` (stereo not given), the EC50 in [2] is 0.569 µM (active); in [3] it was > 60 µM (not active).
With `c1ccc2c([C@@H]3CCN(CCN4CCOCC4)C3)c[nH]c2c1`, the AC50 at Cytochrome P450 2D6 was 3.98 µM (inconclusive).
`CCCCn1c(SCc2c(C)noc2C)nc2cc(S(N)(=O)=O)ccc21`: the AC50 on Cytochrome P450 1A2 was 6.31 µM (inconclusive).
On to `CC(C)COP(=O)(OCC(C)C)C(O)c1ccccc1F` (stereo not given), for which, at Cytochrome P450 3A4, the AC50 was 3.98 µM (inconclusive).
With `O=C(OC(c1ccccc1)c1nccc2ccccc12)c1cc([N+](=O)[O-])cc([N+](=O)[O-])c1` (stereo not given), the EC50 in experiment [2] was 1.01 µM (active); in experiment [3], > 60 µM (not active).
Consider `CCO[C@@H]1OC(C(=O)N2CCN(Cc3ccc4c(c3)OCO4)CC2)=C[C@H](C2CCCCC2)[C@H]1CCCO`, for which the EC50 in experiment [2] was 1.01 µM (active); in experiment [3], > 60 µM (not active).
Turning to `Clc1ccccc1-c1ccc2ncnc(NC3CCNCC3)c2c1`, the AC50 is 20 µM (inconclusive) at Cytochrome P450 2D6 and 15.8 µM (inconclusive) on Cytochrome P450 1A2.
With `COc1ccc2[nH]c(C)c(CCN(Cc3cccs3)C(S)=Nc3ccccc3OC)c2c1`, the EC50 in experiment [2] was 2.08 µM (active); in experiment [3], > 60 µM (not active).
Turning to `COc1ccc(-c2nc3cnc(N4CCOCC4)nc3n(Cc3cccs3)c2=O)cc1`, the AC50 at Cytochrome P450 1A2 was 2.51 µM (inconclusive).
In the case of `CN(C)c1nc2c(c(=O)[nH]c(=O)n2C)n1Cc1ccccc1Br`, the values for the AC50 at Cytochrome P450 2D6, on Cytochrome P450 1A2 and at Cytochrome P450 2C9 were 25.1 µM (inconclusive), 28.2 µM (inconclusive) and 0.0708 µM (inconclusive), respectively.
On to `CCOc1ccc(-n2c(SCC(=O)Nc3ccc(OC)cc3OC)nc3c(c2=O)SCC3)cc1`, for which the AC50 on Cytochrome P450 3A4 was 15.8 µM (inconclusive).
On to `CCNc1ncc2nc(-c3cc(F)cc(F)c3)c(=O)n(CCC#N)c2n1`, for which the AC50 on Cytochrome P450 1A2 was 0.794 µM (inconclusive).
Regarding `CCCCC[C@H](O)c1cccc(OCc2ccc3ccccc3n2)c1`, on Cytochrome P450 2C9, the AC50 was 31.6 µM (inconclusive).

The record behind these values is ChEMBL document CHEMBL1201862, “PubChem BioAssay data set” (2004).
